Non-standard residues stand in square brackets, D forms with d. Residues, ends and D or L forms follow the SMILES beside them. *: point of attachment. Sta = CC(C)C[C@H](N)[C@@H](O)CC(=O)O; Isovaleryl = CC(C)CC(=O)*
Test system: proteolytic activity of anti-Factor VIII IgG
Test: Inhibition of anti-Factor VIII IgG-catalysed hydrolysis of [125I]-Factor VIII
Assay type: biochemical, human
Settings: for inhibition of proteolytic activity of anti-Factor VIII IgG: IgG of patients Bor and Wal
Procedure: Commercial human recombinant Factor VIII was labelled with ^125I to a specific activity of 11.6 nCi/μg, by using the iodogen method. [^125I]-Factor VIII (1.5 to 150 ng) was incubated in 50 μl of 50 mM tris-HCI pH 7.7, 100 mM glycine, 0.025% Tween-20 and 0.02% NaN3 alone or with 17 to 1667 nM of immuno-purified anti-Factor VIII IgG for 5 min to 10 hours at 38° C. Human monoclonal anti-digoxin IgG M061 (mAb) and normal unfractionated human polyclonal IgG (IVIg, Sandoglobulin®), were used as negative controls. Samples were mixed 1:1 with Laemmli's buffer without mercaptoethanol, and were subjected to SDS electrophoresis without boiling,. Samples were run in parallel on 7.5% and 15% SDS-PAGE under non-reducing conditions, after loading 20 μl of each sample per lane. Migration was performed at room temperature using a mini-PROTEAN II system at 25 mA/gel, until the dye front reached the bottom of the gel. […] Following autoradiography, the Factor VIII bands of apparent molecular weight 200 and 300 kDa that are consistently hydrolysed by anti-Factor VIII IgG, were scanned so as to allow for the calculation of the rate of hydrolysis of labelled Factor VIII.
Hydrolysis of [^125I]-Factor VIII by affinity-purified anti-Factor VIII IgG antibodies of haemophilia A patients with inhibitor in the presence of Pefabloc®. [^125I]-Factor VIII (150 ng) was incubated alone, with 50 μg/ml of immunopurified anti-Factor VIII IgG of patient Wal or in the presence of both anti-Factor VIII IgG and 4 mM of the serine protease inhibitor Pefabloc® (Boehringer) for 5 h at 38° C. Factor VIII was then analysed by 7.5% SDS-PAGE under non-reducing conditions. Following autoradiography, the Factor VIII bands of apparent molecular weight 200 and 300 kDa that are consistently hydrolysed by anti-FVIII IgG, were scanned so as to allow for the calculation of the % of hydrolysis of labelled […].

Q: Which “inhibition of proteolytic activity of anti-Factor VIII IgG” value (from here on “inhibition … of anti-Factor VIII IgG”) (leupeptin 10 μM) does the source give for `CC(=O)N[C@@H](CC(C)C)C(=O)N[C@@H](CC(C)C)C(=O)N[C@H](C=O)CCCNC(=N)N` [leupeptin] here?
A: did not result in inhibition of proteolytic activity

Q: With `Cl.NCCc1ccc(S(=O)(=O)F)cc1` [Pefabloc, 4-(2-aminoethyl)benzenesulphonyl fluoride hydrochloride] as the compound, how does the “inhibition of proteolysis of radio-labelled Factor VIII by anti-Factor VIII allo-antibodies of patient Wal” value (4 mM Pefabloc, 50 μg/ml IgG of patient Wal, 5 h at 38° C.) read?
A: about 62%

Q: For `CC(C)CC(=O)N[C@H](C(=O)N[C@H](C(=O)N[C@@H](CC(C)C)[C@@H](O)CC(=O)N[C@@H](C)C(=O)N[C@@H](CC(C)C)[C@@H](O)CC(=O)O)C(C)C)C(C)C` [pepstatin] (Isovaleryl-VV[Sta]A[Sta]-OH), which “inhibition … of anti-Factor VIII IgG” value (pepstatin 10 μM) is on record?
A: did not result in inhibition of proteolytic activity

Q: For aprotinin, which “inhibition … of anti-Factor VIII IgG” value (aprotinin 0.15 μM) is on record?
A: did not result in inhibition of proteolytic activity

Q: For `O=C(O)CN(CCN(CC(=O)O)CC(=O)O)CC(=O)O` [EDTA], which “inhibition … of anti-Factor VIII IgG” value (EDTA 1.3 μM) is on record?
A: did not result in inhibition of proteolytic activity

Q: For `CC(C)C[C@H](NC(=O)[C@H]1O[C@@H]1C(=O)O)C(=O)NCCCCN=C(N)N` [E-64], which “inhibition … of anti-Factor VIII IgG” value (E-64 28 μM) is on record?
A: did not result in inhibition of proteolytic activity

Q: For vWF: purified von Willebrand Factor, which “partial inhibition of hydrolysis of Factor VIII by anti-Factor VIII IgG” value (30 μg/ml of vWF versus 300 ng/ml of Factor VIII) is on record?
A: 36.9%

Reference: US7507540B1, “Catalytic anti-factor VIII allo-antibodies” (Institut National de la Sante et de la Recherche Medicale …, priority 1999, dated 2009)
